This is an account of results in publication PMC7272617 (Scientific Reports, 2020).

A word on the MIC: it is the least concentration at which growth counts as inhibited. A higher MIC goes with weaker potency.

In data set [1] the test system is human red blood cells (hRBCs). Kind of data set: Hemolytic activity, hemoglobin release. As for the experimental part: Hemolytic activity of the peptides was assayed against human red blood cells (hRBCs) by measuring the amount of hemoglobin released after treatment. The hRBCs, freshly collected from a healthy volunteer in polycarbonate tubes containing heparin, were washed three times in sterile phosphate buffered saline (PBS) and centrifuged at 2,000 × g for 5 min or until the supernatant became clear. […] After 1 h of incubation at 37 °C, intact hRBCs were pelleted by centrifugation at 2,000 × g for 10 min. The supernatant was transferred to a new 96-well plate and the release of hemoglobin was monitored by measurement of absorbance at 405 nm using a Multiskan FC microplate reader. The hRBCs in PBS only (ODBlank) and in 0.1% Triton X-100 (ODTriton X-100) were employed as negative (0% hemolysis) and positive (100% hemolysis) controls, respectively. The percentage of hemolysis was calculated according to the following equation: %Hemolysis=(ODSample−ABlank)/(ODTritonX−100−ODBlank)×100

In data set [2] the test system is MDR P. aeruginosa clinical isolate No.4. As to conditions: MDR clinical isolate No.4, 24 h.
Data set [3] deals with all Gram-negative strains. Nature of the data set: Mean MIC and therapeutic index, Gram-negative strains. The format is cell-based. As to conditions: 7 Gram-negative strains of Table 3.
For data set [4], the system named is Bacillus cereus ATCC 11778. As to conditions: ATCC 11778, 24 h.
For data set [5], the system named is Enterococcus faecalis ATCC 29212. As to conditions: ATCC 29212, 24 h.
Data set [6] deals with MDR P. aeruginosa clinical isolate No.2. The settings on record: MDR clinical isolate No.2, 24 h.
Data set [7] relates to MDR P. aeruginosa clinical isolate No.10. As to conditions: MDR clinical isolate No.10, 24 h.
Data set [8] deals with Acinetobacter baumannii MT strain. As to conditions: MT strain, 24 h.

Each structure is given as a SMILES string. Values after ≈ are worked out from the molar mass of the structure shown. Where a SMILES comes first, the peptide text is derived from it.

With `CC[C@H](C)[C@H](NC(=O)[C@H](CCCNC(=N)N)NC(=O)[C@H](CCCCN)NC(=O)[C@H](C)NC(=O)[C@@H](NC(=O)[C@@H](N)CCCCN)[C@@H](C)CC)C(=O)N[C@@H](Cc1c[nH]c2ccccc12)C(=O)N[C@@H](CCCCN)C(=O)N[C@H](C(=O)N[C@@H](CC(C)C)C(=O)N[C@@H](CCCNC(=N)N)C(=O)N[C@@H](CCCNC(=N)N)C(=O)N[C@@H](CCCNC(=N)N)C(N)=O)[C@@H](C)CC` [PA-13] (H-KIAKRIWKILRRR-NH2; N-terminus assumed), the “hemolytic activity at the MIC” value in data set [1] is recorded as “less than 2%”. Also, the MIC in data set [2] was determined as 7.81 µg/mL (≈ 4.5 µM); in data set [4], 15.63 µg/mL (≈ 9 µM); in data set [5] it was 250 µg/mL (≈ 144 µM); in data set [6], 7.81 µg/mL (≈ 4.5 µM); in data set [7], 7.81 µg/mL (≈ 4.5 µM); in data set [8] it was 7.81 µg/mL (≈ 4.5 µM). For the same compound, the “GM (Gr.− strains): geometric mean of MIC values from all Gram-negative strains” value in data set [3] is 15.90 µg/mL.
